Each compound was assayed against c-Met kinase (h-Met; histidine-tagged c-Met catalytic domain fusion protein) (Homo sapiens (Human), UniProt P08581) (assay: In Vitro c-Met Kinase Enzyme Assays). Settings: phosphorylation of poly Glu-Tyr, 5 μM ATP, 25 minutes at 30° C.
Format: biochemical
Procedure: Compounds were screened in vitro for their ability to inhibit c-Met kinase activity. […] Briefly, histidine-tagged c-Met catalytic domain fusion protein (Invitrogen, #PV3143) was used for the assay. […] The reaction lasted for 25 minutes at 30° C. After the reaction was completed, the contents of the plates was discarded. Plates were then washed with TBS-T (250 μL/well, 5×) and then blocked with TBS-T containing 1% BSA for 2 hours. The contents of the plates was discarded, and 100 μL (per well) of peroxidase-labeled anti-phospho-tyrosine antibody (Sigma, #A5964) diluted (1:60,000) in 1% BSA containing TBS-T were then added and incubated for 1 hour. Plates were washed with TBS-T ([…], 5×) and followed by the color reaction using 100 μL (1:1 mixture) of H2O2 and tetramethylbenzidine (R&D Systems, #DY999). The reaction was stopped in minutes with 100 μL of 2 N H2SO4. The optical density was measured immediately using a microplate reader at 450 nm with wavelength correction at 540 nm. IC50 values were calculated with the GraphPad Prism software. The linear range (i.e., the time period over which the rate remained equivalent to the initial rate) was determined for the kinase and IC50 determinations were performed within this range.

Chain of c-Met kinase (h-Met; histidine-tagged c-Met catalytic domain fusion protein) (P08581 1078-1345): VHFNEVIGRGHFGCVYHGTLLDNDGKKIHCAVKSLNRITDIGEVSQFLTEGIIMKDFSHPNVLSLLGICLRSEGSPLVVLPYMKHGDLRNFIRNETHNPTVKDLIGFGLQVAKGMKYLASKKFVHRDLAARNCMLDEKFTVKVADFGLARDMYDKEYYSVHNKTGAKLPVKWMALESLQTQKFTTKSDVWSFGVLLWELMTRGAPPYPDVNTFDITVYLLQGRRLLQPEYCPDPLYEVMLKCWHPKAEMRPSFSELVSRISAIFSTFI

IC50, < 500 nM:
O=C(c1ccc(-c2cnc3ncc(C4(c5ccc6ncccc6c5)CC4)n3c2)cc1)N1CCC1 [Example 29, 6-(1-{6-[4-(Azetidin-1-ylcarbonyl)phenyl]imidazo[1,2-a]pyrimidin-3-yl}cyclopropyl)quinoline]
CN(C)C(=O)c1ccc(-c2cnc3ncc(C4(c5ccc6ncccc6c5)CC4)n3c2)cc1 [Example 30, N,N-Dimethyl-4-[3-(1-quinolin-6-ylcyclopropyl)imidazo[1,2-a]pyrimidin-6-yl]benzamide]
O=C(NCC1CCCO1)c1ccc(-c2cnc3ncc(C4(c5ccc6ncccc6c5)CC4)n3c2)cc1 (centres unmarked) [Example 31, 4-[3-(1-Quinolin-6-ylcyclopropyl)imidazo[1,2-a]pyrimidin-6-yl]-N-(tetrahydrofuran-2-ylmethyl)benzamide]
CN(C(=O)c1ccc(-c2cnc3ncc(C4(c5ccc6ncccc6c5)CC4)n3c2)cc1)C1CCN(Cc2ccccc2)C1 (centres unmarked) [Example 32, N-(1-Benzylpyrrolidin-3-yl)-N-methyl-4-[3-(1-quinolin-6-ylcyclopropyl)imidazo[1,2-a]pyrimidin-6-yl]benzamide]
O=C(NC1CCN(c2ccccn2)CC1)c1ccc(-c2cnc3ncc(C4(c5ccc6ncccc6c5)CC4)n3c2)cc1 [Example 33, N-(1-Pyridin-2-ylpiperidin-4-yl)-4-[3-(1-quinolin-6-ylcyclopropyl)imidazo[1,2-a]pyrimidin-6-yl]benzamide]
CC(NC(=O)c1ccc(-c2cnc3ncc(C4(c5ccc6ncccc6c5)CC4)n3c2)cc1)c1ccccn1 (centres unmarked) [Example 34, N-(1-Pyridin-2-ylethyl)-4-[3-(1-quinolin-6-ylcyclopropyl)imidazo[1,2-a]pyrimidin-6-yl]benzamide]
O=C(c1ccc(-c2cnc3ncc(C4(c5ccc6ncccc6c5)CC4)n3c2)cc1)N1CC[C@H](F)C1 [Example 35, 6-{1-[6-(4-[(3S)-3-Fluoropyrrolidin-1-yl]carbonylphenyl)imidazo[1,2-a]pyrimidin-3-yl]cyclopropyl}quinoline]
COCC1(NC(=O)c2ccc(-c3cnc4ncc(C5(c6ccc7ncccc7c6)CC5)n4c3)cc2)CCC1 [Example 36, N-[1-(Methoxymethyl)cyclobutyl]-4-[3-(1-quinolin-6-ylcyclopropyl)imidazo[1,2-a]pyrimidin-6-yl]benzamide]
O=C(NC1CCN(c2ccccn2)C1)c1ccc(-c2cnc3ncc(C4(c5ccc6ncccc6c5)CC4)n3c2)cc1 (centres unmarked) [Example 37, N-(1-Pyridin-2-ylpyrrolidin-3-yl)-4-[3-(1-quinolin-6-ylcyclopropyl)imidazo[1,2-a]pyrimidin-6-yl]benzamide]
O=C(c1ccc(-c2cnc3ncc(C4(c5ccc6ncccc6c5)CC4)n3c2)cc1)N1CCC(c2ccccn2)C1 (centres unmarked) [Example 38, 6-[1-(6-{4-[(3-Pyridin-2-ylpyrrolidin-1-yl)carbonyl]phenyl}imidazo[1,2-a]pyrimidin-3-yl)cyclopropyl]quinoline]
O=C(c1ccc(-c2cnc3ncc(C4(c5ccc6ncccc6c5)CC4)n3c2)cc1)N1CC[C@H](Oc2ccccn2)C1 [Example 39, 6-{1-[6-(4-[(3S)-3-(Pyridin-2-yloxy)pyrrolidin-1-yl]carbonylphenyl)imidazo[1,2-a]pyrimidin-3-yl]cyclopropyl}quinoline]
O=C(NCCOc1ccccn1)c1ccc(-c2cnc3ncc(C4(c5ccc6ncccc6c5)CC4)n3c2)cc1 [Example 40, N-[2-(Pyridin-2-yloxy)ethyl]-4-[3-(1-quinolin-6-ylcyclopropyl)imidazo[1,2-a]pyrimidin-6-yl]benzamide]
CC(COc1ccccn1)NC(=O)c1ccc(-c2cnc3ncc(C4(c5ccc6ncccc6c5)CC4)n3c2)cc1 (centres unmarked) [Example 41, N-[1-Methyl-2-(pyridin-2-yloxy)ethyl]-4-[3-(1-quinolin-6-ylcyclopropyl)imidazo[1,2-a]pyrimidin-6-yl]benzamide]
O=C(NCCOc1ccccc1)c1ccc(-c2cnc3ncc(C4(c5ccc6ncccc6c5)CC4)n3c2)cc1 [Example 42, N-(2-Phenoxyethyl)-4-[3-(1-quinolin-6-ylcyclopropyl)imidazo[1,2-a]pyrimidin-6-yl]benzamide]
CNC(=O)[C@@H](NC(=O)c1ccc(-c2cnc3ncc(C4(c5ccc6ncccc6c5)CC4)n3c2)cc1)C(C)(C)C [Example 43, N-(1S)-2,2-Dimethyl-1-[(methylamino)carbonyl]propyl-4-[3-(1-quinolin-6-ylcyclopropyl)imidazo[1,2-a]pyrimidin-6-yl]benzamide]
CN(C)C(=O)[C@@H](NC(=O)c1ccc(-c2cnc3ncc(C4(c5ccc6ncccc6c5)CC4)n3c2)cc1)C(C)(C)C [Example 44, N-(1S)-1-[(Dimethylamino)carbonyl]-2,2-dimethylpropyl-4-[3-(1-quinolin-6-ylcyclopropyl)imidazo[1,2-a]pyrimidin-6-yl]benzamide]
CC(C)(C)[C@H](NC(=O)c1ccc(-c2cnc3ncc(C4(c5ccc6ncccc6c5)CC4)n3c2)cc1)C(=O)N1CCC1 [Example 45, N-[(1S)-1-(Azetidin-1-ylcarbonyl)-2,2-dimethylpropyl]-4-[3-(1-quinolin-6-ylcyclopropyl)imidazo[1,2-a]pyrimidin-6-yl]benzamide]
O=C(NC1CC1)c1cccc(-c2cnc3ncc(C4(c5ccc6ncccc6c5)CC4)n3c2)c1 [Example 46, N-Cyclopropyl-3-[3-(1-quinolin-6-ylcyclopropyl)imidazo[1,2-a]pyrimidin-6-yl]benzamide]
O=C(NCc1ccccn1)c1cccc(-c2cnc3ncc(C4(c5ccc6ncccc6c5)CC4)n3c2)c1 [Example 47, N-(Pyridin-2-ylmethyl)-3-[3-(1-quinolin-6-ylcyclopropyl)imidazo[1,2-a]pyrimidin-6-yl]benzamide]
CN(C)C(=O)c1cccc(-c2cnc3ncc(C4(c5ccc6ncccc6c5)CC4)n3c2)c1 [Example 48, N,N-Dimethyl-3-[3-(1-quinolin-6-ylcyclopropyl)imidazo[1,2-a]pyrimidin-6-yl]benzamide]
CNC(=O)c1cccc(-c2cnc3ncc(C4(c5ccc6ncccc6c5)CC4)n3c2)c1 [Example 49, N-Methyl-3-[3-(1-quinolin-6-ylcyclopropyl)imidazo[1,2-a]pyrimidin-6-yl]benzamide]
CNC(=O)[C@H](C)NC(=O)c1ccc(-c2cnc3ncc(C4(c5ccc6ncccc6c5)CC4)n3c2)cc1 [Example 50, N-[(1S)-1-Methyl-2-(methylamino)-2-oxoethyl]-4-[3-(1-quinolin-6-ylcyclopropyl)imidazo[1,2-a]pyrimidin-6-yl]benzamide]
CNC(=O)[C@@H](C)NC(=O)c1ccc(-c2cnc3ncc(C4(c5ccc6ncccc6c5)CC4)n3c2)cc1 [Example 51, N-[(1R)-1-Methyl-2-(methylamino)-2-oxoethyl]-4-[3-(1-quinolin-6-ylcyclopropyl)imidazo[1,2-a]pyrimidin-6-yl]benzamide]
COC(=O)N1CCN(c2ccc(-c3cnc4ncc(C5(c6ccc7ncccc7c6)CC5)n4c3)cn2)CC1 [Example 53, Methyl 4-{5-[3-(1-quinolin-6-ylcyclopropyl)imidazo[1,2-a]pyrimidin-6-yl]pyridin-2-yl}piperazine-1-carboxylate]
CS(=O)(=O)N1CCN(c2ccc(-c3cnc4ncc(C5(c6ccc7ncccc7c6)CC5)n4c3)cn2)CC1 [Example 54, 6-[1-(6-{6-[4-(Methylsulfonyl)piperazin-1-yl]pyridin-3-yl}imidazo[1,2-a]pyrimidin-3-yl)cyclopropyl]quinoline]
CN(C)C(=O)N1CCN(c2ccc(-c3cnc4ncc(C5(c6ccc7ncccc7c6)CC5)n4c3)cn2)CC1 [Example 55, N,N-Dimethyl-4-{5-[3-(1-quinolin-6-ylcyclopropyl)imidazo[1,2-a]pyrimidin-6-yl]pyridin-2-yl}piperazine-1-carboxamide]
CC(C)[C@H](NC(=O)c1ccc(-c2cnc3ncc(C4(c5ccc6ncccc6c5)CC4)n3c2)cc1)C(=O)N(C)C [Example 56, N-(1S)-1-[(Dimethylamino)carbonyl]-2-methylpropyl-4-[3-(1-quinolin-6-ylcyclopropyl)imidazo[1,2-a]pyrimidin-6-yl]benzamide]
CN(C)C(=O)C1(NC(=O)c2ccc(-c3cnc4ncc(C5(c6ccc7ncccc7c6)CC5)n4c3)cc2)CCC1 [Example 57, N-1-[(Dimethylamino)carbonyl]cyclobutyl-4-[3-(1-quinolin-6-ylcyclopropyl)imidazo[1,2-a]pyrimidin-6-yl]benzamide]
CC(C)(C)[C@H](NC(=O)c1ccc(-c2cnc3ncc(C4(c5ccc6ncccc6c5)CC4)n3c2)cn1)C(=O)N1CCC1 [Example 58, N-[(1S)-1-(Azetidin-1-ylcarbonyl)-2,2-dimethylpropyl]-5-[3-(1-quinolin-6-ylcyclopropyl)imidazo[1,2-a]pyrimidin-6-yl]pyridine-2-carboxamide]
